# Experiments:
# HEPG2 cells [HEPG2细胞] [1] = assay: In vitro cytotoxicity experiment (体外细胞毒性实验); format: cell-based; settings: sorafenib 4 uM, 2800Z 60 uM, each alone or combined, 12, 24, 36 h
# HEPG2 cells [HEPG2细胞] [2] = settings: known IC50 value of the chemotherapeutic drug; cell line not printed in the clause; cited from earlier work
# [3] = tested on: mouse liver cancer (subcutaneous HEPG2 cells in nude mice) [小鼠肝癌]; assay: In vivo anti-liver-cancer experiment (体内抗肝癌实验), subcutaneous HEPG2 tumours in nude mice; settings: 14 days, i.p. three times per week for two weeks
# [4] = sorafenib 1 mg/kg, 2800Z 4 mg/kg, each alone or combined
smiles,measurement,setting,value
"CNC(=O)c1cc(Oc2ccc(NC(=O)Nc3ccc(Cl)c(C(F)(F)F)c3)cc2)ccn1 [索拉菲尼, Sorafenib]",cytotoxicity (in words),HEPG2 cells [HEPG2细胞] [1],细胞毒性较差
same,IC50,HEPG2 cells [HEPG2细胞] [2],10 µM
same,liver cancer volume compared with the untreated group (in words),[3]; sorafenib 1 mg/kg or 2800Z 4 mg/kg,与未给药组的结果相近
same,inhibition of mouse liver cancer (in words),[3]; [4],抑制作用较弱
same,liver cancer (tumour) volume,[3]; [4],~1000 mm3

# Source: patent CN112843052A, “新型表观遗传因子抑制剂2800z在制备抗肝癌药物增敏剂中的应用” (Hunan Normal University, priority 2021, dated 2021)
